Like-named read-outs stand apart in the source and are kept apart here.
Assays:
[1] = Phase II glucuronidation stability in mouse liver microsomes (UDPGA); type: in vitro ADME
Protocol: Phase I and phase II metabolic stability assay for was conducted in mouse liver microsomes. For phase I metabolism, the reaction was carried out with 100 mM potassium phosphate buffer, pH 7.4, in the presence of NADPH regenerating system (1.3 mM NADPH, 3.3 mM glucose 6-phosphate, 3.3 mM MgCl2, 0.4 U/mL glucose-6-phosphate dehydrogenase, 50 μM sodium citrate). Reactions in duplicate were initiated by addition of the liver microsomes to the incubation mixture (compound final concentration was 10 μM; 0.5 mg/mL microsomes). For phase II glucuronidation reaction compound was added to TRIS-HCl buffer (50 mM, pH 7.5) with microsomes (0.5 mg/mL), along with MgCl2 (8 mM), and alamethicin (25 μg/mL) and pre-incubated at 37° C. The reaction was initiated (in duplicate) with UDPGA at a final concentration of 2 mM. Negative controls in the absence NADPH and UDPGA were carried for both phase I and phase II metabolism respectively, to determine the specific cofactor free degradation. […] Compound disappearance was monitored over time using a liquid chromatography and tandem mass spectrometry (LC/MS/MS) method.
Compounds were separated on an Agilent 1290 UPLC system with a c18 column using a gradient run of 55:45-5:95 water:acetonitrile over 3.2 minutes and detected on an Agilent 6520 QTOF mass spectrometer.

[2] = target: human DAT A480T mutant (Homo sapiens (Human), UniProt Q01959, A480T); test: [3H]DA uptake inhibition in intact COS7 cells, hDAT A480T; conditions: for Ki: read-out: hDAT A480T Ki [S.E. interval], [3H]DA uptake inhibition potency; for affinity at DAT A480T compared to DAT WT: uptake inhibition
Sequence of human DAT A480T mutant (Q01959 whole entry A480T): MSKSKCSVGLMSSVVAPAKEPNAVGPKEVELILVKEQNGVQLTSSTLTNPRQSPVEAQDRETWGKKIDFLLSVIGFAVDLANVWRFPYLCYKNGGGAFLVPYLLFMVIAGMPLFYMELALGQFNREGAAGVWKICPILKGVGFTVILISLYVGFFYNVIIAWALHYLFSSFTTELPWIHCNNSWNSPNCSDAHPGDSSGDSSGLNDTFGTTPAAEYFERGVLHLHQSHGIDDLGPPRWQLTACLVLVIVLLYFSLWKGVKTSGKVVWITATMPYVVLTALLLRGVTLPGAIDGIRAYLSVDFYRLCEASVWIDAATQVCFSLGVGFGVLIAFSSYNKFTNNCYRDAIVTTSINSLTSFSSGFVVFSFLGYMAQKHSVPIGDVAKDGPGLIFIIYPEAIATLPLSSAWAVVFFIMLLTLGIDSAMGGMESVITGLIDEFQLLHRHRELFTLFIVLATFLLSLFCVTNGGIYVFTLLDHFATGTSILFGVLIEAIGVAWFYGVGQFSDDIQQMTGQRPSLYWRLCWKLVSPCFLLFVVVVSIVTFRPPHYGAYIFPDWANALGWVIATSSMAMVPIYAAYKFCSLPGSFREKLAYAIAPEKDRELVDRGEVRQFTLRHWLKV

[3] = target: human SERT T497A mutant (Homo sapiens (Human), UniProt P31645, T497A); type: cell-based; conditions: for Ki: read-out: hSERT T497A Ki [S.E. interval]
Text: (§1) Molecular Pharmacology Site-directed mutagenesis: Synthetic cDNA encoding the human DAT (synDAT) were subcloned into pcDNA3 (Invitrogen, Carlsbad, Calif.). cDNA encoding the human SERT (hSERT) was cloned into the pUbilz expression vector. Mutations herein were generated by the QuickChange method (adapted from Stratagene, La Jolla, Calif.) and confirmed by restriction enzyme mapping and DNA sequencing. Positive clones were amplified by transformation into XL1 blue competent cells (Stratagene) and positive colony picked and grown in LB media over night at 37° C. in an orbital incubator (Infors) @ 200 rpm. Plasmids were harvested using the maxi prep kit provided by Qiagen according to the manufacturer's manual.
(§2) Uptake assays were performed essentially as previously described to Cha, J. H.; Zou, M. F.; Adkins, E. M.; Rasmussen, S. G.; Loland, C. J.; Schoenenberger, B.; Gether, U.; Newman, A. H. Rhodamine-Labeled 2beta-Carbomethoxy-3beta-(3,4-Dichlorophenyl)Tropane Analogues as High-Affinity Fluorescent Probes for the Dopamine Transporter. […] Transiently transfected COS-7 cells were plated in 12-well (3*10^5 cells/well) or 24-well dishes (10^5 cells/well) coated with poly-ornithine to achieve an uptake level of no more than 10% of total added radioligand. The uptake assays were carried out 2 days after transfection. Prior to the experiment, the cells were washed once in 500 μl of uptake buffer buffer (25 mM 4-(2-hydroxyethyl)-1-piperazineethanesulfonic acid (HEPES), 130 mM NaCl, 5.4 mM KCl, 1.2 mM CaCl2, 1.2 mM MgSO4, 1 mM L-ascorbic acid, 5 mM D-glucose, and 1 μM of the catechol-O-methyltransferase inhibitor Ro 41-0960 (Sigma), pH 7.4) at room temperature (RT). […] All samples were transferred to 24-well counting plates and 500 μL (or 600 μL) of Opti-phase Hi Safe 3 scintillation fluid (Perkin Elmer) was added followed by counting of the plates in a Wallac Tri-Lux β-scintillation counter (Perkin Elmer). Nonspecific uptake was determined in the presence of 5 μM paroxetine for hSERT and 50 μM nomifensine for hDAT expressing cells. All determinations were performed in triplicate.

[4] = target: human SERT wild type (Homo sapiens (Human), UniProt P31645); type: cell-based; conditions: read-out: hSERT WT Ki [S.E. interval]
Text: as §1, §2

[5] = target: human DAT wild type (Homo sapiens (Human), UniProt Q01959); test: [3H]DA uptake inhibition in intact COS7 cells, hDAT WT; type: cell-based; conditions: [3H]DA uptake inhibition potency, read-out: hDAT WT Ki [S.E. interval]
[6] = target: NET (Rattus norvegicus (Rat), UniProt Q9WTR4); test: Norepinephrine Transporter Binding Assay ([3H]Nisoxetine, rat frontal cortex membranes)
Sequence of NET (Q9WTR4 entry or part of it): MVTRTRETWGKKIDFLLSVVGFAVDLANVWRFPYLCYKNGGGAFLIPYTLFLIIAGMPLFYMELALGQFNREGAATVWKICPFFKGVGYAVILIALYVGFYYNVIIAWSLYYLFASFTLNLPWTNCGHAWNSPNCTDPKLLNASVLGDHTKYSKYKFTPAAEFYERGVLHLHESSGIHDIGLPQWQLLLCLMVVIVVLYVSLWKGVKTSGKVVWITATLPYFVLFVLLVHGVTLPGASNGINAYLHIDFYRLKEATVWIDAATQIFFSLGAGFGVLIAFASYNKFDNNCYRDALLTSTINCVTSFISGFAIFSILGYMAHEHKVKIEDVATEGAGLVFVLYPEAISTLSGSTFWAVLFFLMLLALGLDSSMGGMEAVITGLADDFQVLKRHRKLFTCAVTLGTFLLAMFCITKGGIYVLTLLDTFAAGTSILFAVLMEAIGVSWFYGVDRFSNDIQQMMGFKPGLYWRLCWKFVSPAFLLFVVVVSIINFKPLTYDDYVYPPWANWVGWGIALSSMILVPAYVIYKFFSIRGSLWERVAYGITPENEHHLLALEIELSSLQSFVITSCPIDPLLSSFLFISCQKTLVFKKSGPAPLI
Protocol: Binding affinities of all compounds were evaluated at the DAT, SERT, and NET in rat brain membranes using previously described methods:
Norepinephrine Transporter Binding Assay. Brains from male Sprague-Dawley rats weighing 200-225 g (Taconic Labs, Germantown, N.Y.) were removed, frontal cortex dissected and rapidly frozen. Membranes were prepared by homogenizing tissues in 20 volumes (w/v) of 50 mM Tris containing 120 mM NaCl and 5 mM KCl, (pH 7.4 at 25° C.), using a Brinkman Polytron and centrifuged at 50,000×g for 10 min at 4° C. The resulting pellet was resuspended in buffer, recentrifuged and resuspended in buffer to a concentration of 80 mg/mL. Ligand binding experiments were conducted in assay tubes containing 0.5 mL buffer for 60 min at 0-4° C. […] Nonspecific binding was determined using 1 mM desipramine. Incubations were terminated by rapid filtration through Whatman GF/B filters, presoaked in 0.05% polyethylenimine, using a Brandel R48 filtering manifold (Brandel Instruments Gaithersburg, Md.). The filters were washed twice with 3 mL cold buffer and transferred to scintillation vials. Beckman Ready Value (3.0 mL) was added and the vials were counted using a Beckman 6000 liquid scintillation counter (Beckman Coulter Instruments, Fullerton, Calif.). […] All compounds were tested as racemic mixtures.

[7] = target: SERT (Rattus norvegicus (Rat), UniProt P31652); conditions: 2i v. 2g (Table 1); 4c v. 4a (Table 2)
Sequence of SERT (P31652 whole entry): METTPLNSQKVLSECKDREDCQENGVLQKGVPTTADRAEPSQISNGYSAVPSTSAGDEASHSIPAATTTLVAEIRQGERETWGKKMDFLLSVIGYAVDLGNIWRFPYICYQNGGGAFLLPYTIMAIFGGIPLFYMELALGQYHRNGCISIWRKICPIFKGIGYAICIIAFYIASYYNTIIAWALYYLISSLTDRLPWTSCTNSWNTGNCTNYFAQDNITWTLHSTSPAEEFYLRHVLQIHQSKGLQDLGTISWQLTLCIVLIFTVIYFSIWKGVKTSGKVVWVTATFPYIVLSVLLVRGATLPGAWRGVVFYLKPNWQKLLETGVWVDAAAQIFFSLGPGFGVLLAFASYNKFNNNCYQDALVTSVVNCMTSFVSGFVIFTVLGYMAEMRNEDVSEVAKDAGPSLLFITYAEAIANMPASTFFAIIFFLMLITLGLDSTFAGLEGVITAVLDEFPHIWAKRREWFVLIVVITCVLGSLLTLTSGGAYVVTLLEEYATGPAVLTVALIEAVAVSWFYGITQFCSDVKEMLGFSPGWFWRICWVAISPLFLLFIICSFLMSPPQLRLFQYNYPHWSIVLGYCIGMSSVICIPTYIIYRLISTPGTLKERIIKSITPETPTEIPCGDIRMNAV
Protocol: Brains from male Sprague-Dawley rats weighing 200-225 g (Taconic Labs, Germantown, N.Y.) were removed, midbrain dissected and rapidly frozen. […] Nonspecific binding was determined using 10 mM fluoxetine. […] The filters were washed twice with 3 mL cold buffer and transferred to scintillation vials. Beckman Ready Value (3.0 mL) was added and the vials were counted the next day using a Beckman 6000 liquid scintillation counter (Beckman Coulter Instruments, Fullerton, Calif.). […] Data were analyzed with GraphPad Prism software (San Diego, Calif.).

[8] = target: DAT (Rattus norvegicus (Rat), UniProt P23977); test: Dopamine Transporter Binding Assay ([3H]WIN 35428, rat striatal membranes)
Sequence of DAT (P23977 whole entry): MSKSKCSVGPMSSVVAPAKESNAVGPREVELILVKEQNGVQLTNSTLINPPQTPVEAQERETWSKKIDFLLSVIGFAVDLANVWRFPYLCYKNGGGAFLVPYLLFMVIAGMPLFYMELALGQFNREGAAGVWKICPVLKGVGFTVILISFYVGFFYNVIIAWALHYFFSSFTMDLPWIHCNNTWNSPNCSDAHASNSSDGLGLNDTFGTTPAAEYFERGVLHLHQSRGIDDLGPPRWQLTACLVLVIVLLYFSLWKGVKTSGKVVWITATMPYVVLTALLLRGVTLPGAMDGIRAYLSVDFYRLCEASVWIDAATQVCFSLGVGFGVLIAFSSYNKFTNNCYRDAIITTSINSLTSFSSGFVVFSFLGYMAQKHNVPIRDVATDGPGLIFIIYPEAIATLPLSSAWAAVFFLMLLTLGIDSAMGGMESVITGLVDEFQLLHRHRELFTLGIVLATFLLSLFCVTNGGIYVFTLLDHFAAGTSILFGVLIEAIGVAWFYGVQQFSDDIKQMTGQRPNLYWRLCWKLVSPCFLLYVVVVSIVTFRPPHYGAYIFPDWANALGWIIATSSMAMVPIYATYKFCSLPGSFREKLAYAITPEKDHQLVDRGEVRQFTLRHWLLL

[9] = Brain concentrations in mice; conditions: mouse brain; for IV brain Conc. ng/g ± SD: 10 mg/kg IV; for PO brain Conc. ng/g ± SD: 10 mg/kg PO
Protocol: Plasma was harvested from blood by centrifugation. Additionally at two selected time points (i.e. 30 min and 2 h) brains were collected following both oral and IV dosing. Samples were extracted from plasma by a single one-step protein precipitation method (as described in bioanalysis section below). For brain tissue, whole brains were weighed and homogenized in two times the volume of acetonitrile, followed by vortexing and centrifugation. Once extracted, the samples were analyzed via LC/MS/MS (as described in bioanalysis section below). Non-compartmental-analysis module in WinNonlin™ (version 5.3) was used to assess pharmacokinetic parameters including maximal concentration (Cmax), time to Cmax (Tmax), area under the curve (AUClast), area extrapolated to infinity (AUCO-∞), terminal disposition rate constant (ke), and terminal half-life (t½).
Briefly, plasma samples were thawed on ice prior to extraction. Samples (50 μL) were extracted in 300 μL acetonitrile containing 1000 nM losartan as internal standard. For brain, 50 μL of the supernatant from homogenized tissue was extracted with 100 μL acetonitrile containing 1000 nM losartan as internal standard. Extracts were centrifuged at 16000×g at 4° C. for 10 minutes. Supernatants were transferred to a new siliconized tube and dried under N2 at 45° C. for 30 min. Samples were reconstituted with 100 μL of 30% acetonitrile, vortexed and centrifuged. Supernatants (95 μL) were transferred to a 250 μL polypropylene autosampler vials sealed with a Teflon cap and a volume of 10 μL was injected onto the ultra-performance liquid chromatography (UPLC) instrument for quantitative analysis using a temperature-controlled autosampler operating at 10° C.
The instrument was controlled by the Xcalibur software 2.3 (Thermo Scientific). Samples were introduced to the interface through Turbo Ion Spray with the temperature setting at 350° C.
Chromatographic analysis was performed using an Accela™ ultra high-performance system consisting of an analytical pump, and an autosampler coupled with TSQ Vantage mass spectrometer (Thermo Fisher Scientific Inc., Waltham Mass.).

[10] = test system: ON(O)CCc1ccccc1; test: cells, lysate or membranes; conditions: other: [3H]DA uptake, COS7 cells; pH 7.4; 37.0 °C
[11] = substrate: ON(O)CCc1ccccc1; test: [3H]DA uptake inhibition in intact COS7 cells, hDAT WT; type: cell-based, human; conditions: other: [3H]DA uptake, pH 7.4, 37.0 °C

With `Cc1cc(=O)oc2cc(O)ccc12` [4 Methyl Umbelliferone, 4-methylumbelliferone] as the molecule, how does the “Phase II, parent compound remaining” value ([1]; 0 min) read?
The value was 100%.

And the “Phase II, parent compound remaining” value ([1]; 60 min)?
Its value is 3.10%.

Which Ki [2] does the source give for `CNC(=O)CSC(c1ccc(Cl)cc1)c1ccc(Cl)cc1` [Compound 2h, 2-((Bis(4-chlorophenyl)methyl)thio)-N-methylacetamide] here?
The Ki was 2300 nM.

What about the “affinity at DAT A480T compared to DAT WT” value [2] of the same molecule?
Its value is “essentially the same”.

And the Ki [3]?
Its Ki is 27000 nM.

What about the “affinity at SERT T497A compared to SERT WT” value ([3]; uptake inhibition, COS7 cells) of the same molecule?
Its value is “significantly decreased”.

What about the Ki [4] of the same molecule?
The Ki was 8300 nM.

What about the Ki [5] of the same molecule?
Its Ki is 3700 nM.

What does the source list for `CNC(=O)CSC(c1ccc(Br)cc1)c1ccc(Br)cc1` [Compound 2i, 2-((Bis(4-bromophenyl)methyl)thio)-N-methylacetamide]?
Ki [6]: 11200 nM; increase in SERT affinity, halogen-substituted v. unsubstituted analog [7]: > 50 fold; improvement in DAT affinity, halogen-substituted v. unsubstituted analog [8]: 6 fold

What does the source list for `NCCSC(c1ccccc1)c1ccccc1` [Compound 4a, 2-(benzhydrylthio)ethan-1-amine]?
Ki [2]: 720 nM; affinity at DAT A480T compared to DAT WT [2]: remain unchanged; Ki [3]: 630 nM; affinity at SERT T497A compared to SERT WT ([3]; uptake inhibition, COS7 cells): remain unchanged; Ki [4]: 690 nM; Ki [6]: 982 ± 43.3 nM; Ki [5]: 390 nM

Which results are given for `NCCSC(c1ccc(Cl)cc1)c1ccc(Cl)cc1` [Compound 4b, 2-((bis(4-chlorophenyl)methyl)thio)ethan-1-amine]?
Ki [2]: 1370 nM; affinity at DAT A480T compared to DAT WT [2]: remain unchanged; affinity at SERT T497A compared to SERT WT [3]: remain unchanged; Ki [3]: 170 nM; Ki [4]: 270 nM; Ki [5]: 1210 nM

With `NCCSC(c1ccc(Br)cc1)c1ccc(Br)cc1` [Compound 4c, 2-((bis(4-bromophenyl)methyl)thio)ethan-1-amine] as the molecule, how does the “increase in SERT affinity, halogen-substituted v. unsubstituted analog” value [7] read?
The value was 9 fold.

What about the “improvement in DAT affinity, halogen-substituted v. unsubstituted analog” value [8] of the same molecule?
Its value is 3 fold.

Which results are given for `Fc1ccc(C(SCCNCCCc2ccccc2)c2ccc(F)cc2)cc1` [Compound 4g, N-(2-((bis(4-fluorophenyl)methyl)thio)ethyl)-3-phenylpropan-1-amine]?
IV brain Conc. ng/g ± SD ([9]; 0.5 h): 4776 (1324) ng/g; IV brain Conc. ng/g ± SD ([9]; 2 h): 14111 (8093) ng/g; PO brain Conc. ng/g ± SD ([9]; 0.5 h): 369 (303) ng/g; PO brain Conc. ng/g ± SD ([9]; 2 h): 223 (90) ng/g; Ki [6]: 3850 nM

With `[O-][S+](CCNCCCc1ccccc1)C(c1ccc(Br)cc1)c1ccc(Br)cc1` (centres unmarked) [Compound 5e, N-(2-((bis(4-bromophenyl)methyl)sulfinyl)ethyl)-3-phenylpropan-1-amine] as the molecule, how does the Ki [6] read?
The Ki was 7580 nM.

What about the “selectivity among the monoamine transporters (in words)” value ([8]; DAT, SERT, NET binding, rat brain membranes) of the same molecule?
Its value is “SERT-selective”.

Which Km [10] does the source give for “human DAT A480T mutant (Homo sapiens; A480T)” here?
Its Km is 1,930 nM.

B1: human DAT wild type (Homo sapiens) (protein)
chain: MSKSKCSVGLMSSVVAPAKEPNAVGPKEVELILVKEQNGVQLTSSTLTNPRQSPVEAQDRETWGKKIDFLLSVIGFAVDLANVWRFPYLCYKNGGGAFLVPYLLFMVIAGMPLFYMELALGQFNREGAAGVWKICPILKGVGFTVILISLYVGFFYNVIIAWALHYLFSSFTTELPWIHCNNSWNSPNCSDAHPGDSSGDSSGLNDTFGTTPAAEYFERGVLHLHQSHGIDDLGPPRWQLTACLVLVIVLLYFSLWKGVKTSGKVVWITATMPYVVLTALLLRGVTLPGAIDGIRAYLSVDFYRLCEASVWIDAATQVCFSLGVGFGVLIAFSSYNKFTNNCYRDAIVTTSINSLTSFSSGFVVFSFLGYMAQKHSVPIGDVAKDGPGLIFIIYPEAIATLPLSSAWAVVFFIMLLTLGIDSAMGGMESVITGLIDEFQLLHRHRELFTLFIVLATFLLSLFCVTNGGIYVFTLLDHFAAGTSILFGVLIEAIGVAWFYGVGQFSDDIQQMTGQRPSLYWRLCWKLVSPCFLLFVVVVSIVTFRPPHYGAYIFPDWANALGWVIATSSMAMVPIYAAYKFCSLPGSFREKLAYAIAPEKDRELVDRGEVRQFTLRHWLKV
With B1 as the molecule, how does the Km [11] read?
Its Km is 1,160 nM.
